Measurements published in patent publication US20080176787A1, “Parathyroid hormone analogues and methods of use” (priority 2005, published 2008).
Positions of bridges follow the written chain, without caps; N, C: chain ends. Residues, ends and D or L forms follow the SMILES beside them.

Experiments:
[1] = test system: Gonad intact young Cynomolgus monkeys; experiment: 6-week daily study in gonad intact young cynomolgus monkeys: % cortical porosity; format: in vivo; conditions: Tibial Mid-Diaphysis, 6 weeks
Text: Comparative data regarding increase in cortical bone porosity in monkey subjects using Ostabolin C at a variety of doses and using the prior art PTHs 1-34 is shown below.

[2] = Toxicity, 12 mth monkey; format: in vivo; conditions: in vivo; Ostabolin C, 12 mth monkey
Text: (§1) A NoAEL was not established for the monkey. […] Ostabolin-C™ is at least 4-fold safer than PTH-(1-34).

[3] = test system: monkey; experiment: Toxicity, 12 mth monkey; format: in vivo
Text: as §1

[4] = test system: post-menopausal women with low bone mineral density; experiment: Dose/weight cutoff subgroup analysis and modeling of Phase II 30 and 45 μg cohorts; format: in vivo, human; conditions: for Headache / HyperCa > 2.65 / HyperCa > 2.75 / N + H / Nausea: unit assumed
Protocol: The effect of the dose optimization strategy was evaluated by performing subgroup analyses using actual data from the 30 and 45 μg cohorts of the study (i.e. creation of a new subgroup by combining all patients below the weight cutoff from the 30 μg dose group with all patients above the weight cutoff from the 45 μg dose group, shown in the table below).
A variety of new subgroups were created out of the patients who participated in the Phase II clinical trial. The groups from Phase II are shown above, where each group received a single dose, either 7.5 μg, 15 μg, 30 μg, 45 μg, or placebo. The 30 μg and 45 μg dose groups were re-grouped, according to the weight of the patient, and over 100 new sub-groups were created. This approach of creating new sub-groups out of dosages which are relatively close to each other, is a novel way of conducting Phase II studies.
For the 105 patients who were originally given 30 or 45 μg, new groups were created by utilizing multiple weight cut-offs in increments of 0.5 kg. For example, one new group had the weight cut-off at 59 kg, meaning that every patient from the original low dose (30 μg) group who weighed less than 59 kg and every patient who weighed more than 59 kg from the original high dose (45 μg) group formed a new cohort. This new cohort represents a dose/weight cut-off of 59 kg, a group in which patients weighing less than 59 kg receive the low dose (30 μg) and patients weighing more than 59 kg receive the high dose (45 μg). Another example can be illustrated using a weight cutoff of 68 kg. Such a group would include all those patients who weigh less than 68 kg and who originally received the low dose (30 μg) as well as all those patients who weigh more than 68 kg and who originally received the high dose (45 μg). By using this method, over 100 separate cohorts were created by altering the dose/weight cut-off in increments of 0.5 kg. A summary of the data generated by these new dose/weight cut-off cohorts, using 68 kg and 59 kg as the dose/weight cut-off, is shown in the table below.
The table above illustrates the actual clinical profile obtained for two dose/weight cutoffs (59 kg which produces a higher exposure profile since more patients receive the higher dose and 68 kg in which more patients receive the lower dose). […] One problem with simple subgroup analysis is that endpoints with a small number of events can skew the observed profile because of large changes in incidence when one of these events moves from one side of the weight cutoff to the other. Therefore, the dose/weight cutoff methodology was applied systematically to the data from the 30 and 45 μg dose groups starting at the lowest weight patient in the study (corresponds to the 45 μg profile because everyone receives the high dose) and increasing the cutoff by 0.5 kg increments through 100 kg (corresponding to the 30 μg profile because everyone receives the low dose). The multiple cutoff profiles thus obtained when graphed can then smooth out the effect of individual events as illustrated for the effect on hypercalcemia. The effect of weight cutoff on clinical profile can then be modeled to eliminate the skewing effects of individual data points as illustrated in FIG. 37-40. This approach has been applied to primary and secondary endpoints in the study.
An important benefit of this modeling is that it is possible to project a clinical profile for a specific weight cutoff/dose exposure window with a high degree of accuracy since the effect of individual events is eliminated. The anticipated hypercalcemia and lumbar spine BMD profile for a 68 kg cutoff is illustrated in the table below, which compares the modeled hypercalcemia and lumbar spine BMD changes and the actual Phase II data for the 68 kg weight cutoff. It will also be possible to model the effects of even narrower exposure windows by using multiple dose cutoffs and different doses.

[5] = Ostabolin-C Inhalation Powder (OCIP) Phase I pharmacokinetics; format: in vivo; conditions: female, human, blood
Protocol: A Phase I clinical study was undertaken using Ostabolin-C™ Inhalation Powder (OCIP) to establish an MTD in post-menopausal women, to compare its PK profile with Phase II sub-cutaneous doses, and to evaluate biological activity with cAMP and biomarkers of bone turnover. The OCIP was administered using the Nektar T-326 dry powder inhaler (DPI), which is well-accepted by osteoporosis patients in focus groups. An ascending dose tolerance was used. Each cohort was randomized and included 6 active patients and 2 placebo patients. The patients were post menopausal healthy females that were older than 40 years of age and had no known history of osteoporosis or other bone disease.
The primary measurements were taken at clinical laboratories where patient surveys were taken and the patient could describe any adverse events. Additionally the patients' vital signs were taken with Holter monitoring of EKGs and Spirometry. Pharmacokinetics, such as Ostabolin-C blood levels, PK parameters after a single dose and after 7 days of daily dosing were also measured. Pharmacodynamics were also monitored for changes in bone markers including P1NP, Osteocalcin, NTx, CTx, and urine cyclic AMP.

[6] = test system: rats; experiment: Rat oncogenicity study, 104 weeks subcutaneous; format: in vivo; conditions: 0.5, 5, 30, and 50 μg/kg/day SC
Protocol: Prior art PTHs cause osteosarcomas in animals if administered over a course of two years. The PTH peptides of the present invention, including Ostabolin-C™ and PTH 1-30, are administered subcutaneously to rats for 104 weeks at doses of 0.5, 5, 30, and 50 μg/kg/day. The test article is administered subcutaneously. […] This difference could be due to the different amino acids sequences and/or to the different signalling pathways activated by the PTH molecules.

Q: What does the source list for CC[C@H](C)[C@H](NC(=O)[C@H](CCC(=O)O)NC(=O)[C@H](CO)NC(=O)[C@@H](NC(=O)[C@@H](N)CO)C(C)C)C(=O)N[C@@H](CCC(N)=O)C(=O)N[C@@H](CC(C)C)C(=O)N[C@@H](CCSC)C(=O)N[C@@H](Cc1c[nH]cn1)C(=O)N[C@@H](CC(N)=O)C(=O)N[C@@H](CC(C)C)C(=O)NCC(=O)N[C@@H](CCCCN)C(=O)N[C@@H](Cc1c[nH]cn1)C(=O)N[C@@H](CC(C)C)C(=O)N[C@@H](CC(N)=O)C(=O)N[C@@H](CO)C(=O)N[C@@H](CCSC)C(=O)N[C@@H](CCC(=O)O)C(=O)N[C@@H](CCCN=C(N)N)C(=O)N[C@H](C(=O)N[C@H]1CCC(=O)NCCCC[C@@H](C(=O)N[C@@H](CC(C)C)C(=O)N[C@@H](CC(C)C)C(=O)N[C@@H](CCC(N)=O)C(=O)N[C@@H](CC(=O)O)C(=O)N[C@H](C(N)=O)C(C)C)NC(=O)[C@H](CCCN=C(N)N)NC(=O)[C@H](CC(C)C)NC(=O)[C@H](Cc2c[nH]c3ccccc23)NC1=O)C(C)C [Ostabolin-C, [Leu^27]cyclo[Glu^22-Lys^26]-PTH-(1-31)-NH2] (H-SVSEIQLMHNLGKHLNSMERVEWLRKLLQDV-NH2; lactam 22-26)?
A: % Cortical Porosity ([1]; F, 10 μg/kg/day): 3.2 ± 0.97%; % Cortical Porosity ([1]; F, 25 μg/kg/day): 4.0 ± 1.25%; % Cortical Porosity ([1]; F, 80 μg/kg/day): 10.6 ± 0.35%; % Cortical Porosity ([1]; M, 10 μg/kg/day): 3.7 ± 0.70%; % Cortical Porosity ([1]; M, 25 μg/kg/day): 5.8 ± 1.82%; % Cortical Porosity ([1]; M, 80 μg/kg/day): 16.4 ± 7.14 %; NOAEL at 12 mth [2]: 2 µg/kg; fold less nephrotoxic than PTH-(1-34) ([3]; 12 mth monkey): >4-fold less; hypercalaemic (DIFFERENCES column) ([3]; 12 mth monkey): Ostabolin-C not; Bone hypertrophy ([3]; Ostabolin C 0, 2, 10, 25 μg/kg, 12 mth monkey): hypertrophy all; fold safer than PTH-(1-34) ([3]; pre-clinical toxicity): at least 4 fold; nephrotoxicity ([3]; pre-clinical toxicity): nephrotoxic only in monkeys; % of hypercalcemia ([4]; 4 months, weight cutoff of approximately 68 kg (FIG. 37)): less than 15%; Sitting HR ([4]; 59 kg cut): 4.1; Headache ([4]; 59 kg cut): 20.6%; HyperCa > 2.65 ([4]; 59 kg cut): 22%; HyperCa > 2.75 ([4]; 59 kg cut): 6%; N + H ([4]; 59 kg cut): 12.7%; Nausea ([4]; 59 kg cut): 31.7%; Sitting HR ([4]; 68 kg cut): 3.1; Headache ([4]; 68 kg cut): 12.8%; HyperCa > 2.65 ([4]; 68 kg cut): 12.8%; HyperCa > 2.75 ([4]; 68 kg cut): 7.7%; N + H ([4]; 68 kg cut): 10.6%; Nausea ([4]; 68 kg cut): 31.9%; HyperCa > 2.65 ([4]; 68 kg cutoff, modeled): 14.8%; HyperCa > 2.75 ([4]; 68 kg cutoff, modeled): 7.6%; Cmax ([5]; subcutaneous, Day 1, normalized to SC 45 μg): 0.0747 ng/mL; AUC(0-t) ([5]; subcutaneous, Day 1, normalized to SC 45 μg, read-out: AUC(0-4)): 0.0412 ng·h/mL; Tmax ([5]; Day 1, SC, averaged for all subjects): 13.2 min; half-life ([5]; Day 1, SC, averaged for all subjects, read-out: T½ (converted)): 37.2 min; incidence of osteosarcomas compared to prior art PTH peptides [6]: lower incidences of osteosarcomas
